Source: patent US9700578B2, “Use of nitrite salts for the treatment of cardiovascular conditions” (The United States of America as represented by the …, priority 2003, dated 2017)

Assays:
forearm circulation = assay: Sodium nitrite infusion into the brachial artery, forearm blood flow by venous-occlusion plethysmography; details: 8 μmol/min into brachial artery for 5 minutes
Source text: The protocol was approved by the Institutional Review Board of the National Heart, Lung and Blood Institute, and informed consent was obtained from all volunteer subjects. […] An additional 10 subjects returned three-six months later for a second series of experiments with low dose nitrite infusion. […] No volunteer subject was allowed to take any medication (oral contraceptive agents allowed), vitamin supplements, herbal preparations, nutriceuticals or other “alternative therapies” for at least one month prior to study and were not be allowed to take aspirin for one week prior to study.
Brachial artery and antecubital vein catheters were placed into the arm, with the intraarterial catheter connected to a pressure transducer for blood pressure measurements and an infusion pump delivering normal saline at 1 mL/min. After 20 minutes of rest, baseline arterial and venous blood samples were obtained and forearm blood flow measurements were made by strain gauge venous-occlusion plethysmography, as previously reported (Panza et al., Circulation, 87, 1468-74, 1993). A series of 7 blood flow measurements were averaged for each blood flow determination. A series of measurements termed Parts I and II were performed in randomized order to minimize a time effect on the forearm blood flow response during nitrite infusion.
Part I: Following 20 minutes of 0.9% NaCl (saline) solution infusion at 1 mL/min into the brachial artery, arterial and venous blood samples were obtained for the assays described below and forearm blood flow measured. Exercise was performed by repetitive hand-grip at one-third of the predetermined maximum grip strength using a hand-grip dynamometer (Technical Products Co.) (Gladwin et al., Proc Natl Acad Sci USA, 97, 9943-8, 2000; Gladwin et al., Proc Natl Acad Sci USA, 97, 11482-11487, 2000; Cannon et al., J Clin Invest, 108, 279-87, 2001). Each contraction lasted for 10 seconds followed by relaxation for 5 seconds. Following 5 minutes of exercise, forearm blood flow measurements were obtained during relaxation phases of exercise, and arterial and venous samples collected. Following a 20-minute rest period with continued infusion of saline into the brachial artery, repeated baseline blood samples and forearm blood flow measurements were obtained. L-NMMA was then infused at a rate of 1 mL/min (8 μmol/min) into the brachial artery. Following 5 minutes of L-NMMA infusion, forearm blood flow was measured, and arterial and venous blood samples obtained. Forearm exercise was then initiated in that arm during continued L-NMMA infusion. Forearm blood flow was measured and blood samples obtained after 5 minutes of exercise during continued L-NMMA infusion (FIG. 1).
Part II: After a 30 minute rest period with continued infusion of saline, baseline measurements were obtained, the saline infusion was then stopped, and infusion of nitrite (NaNO2 36 μmol/ml in 0.9% saline) at 1 ml/min was started. […] For the final 9 subjects studied, 0.01-0.03 mM sodium bicarbonate was added to the normal saline, so as to titrate pH to 7.0-7.4. The nitrite solution was light protected and nitrite levels and free NO gas in solution measured by reductive chemiluminescence after all experiments (Gladwin et al., J Biol Chem, 21, 21, 2002).

[1] = test system: hypoxic-induced pulmonary hypertension; assay: Comparison of inhaled nitrite and NO gas during hypoxic-induced pulmonary vasoconstriction: efficacy and duration; assay type: in vivo, newborn lambs; details: hypoxia
Source text: NO gas was introduced into the inspiratory limb of the breathing circuit. The inspired concentration of NO was continuously measured by chemiluminescence (CLD 700 AL, Eco Physics Inc, Ann Arbor, Mich.) in the inspiratory limb of the ventilator loop.
efficacy and duration of effect. This protocol was designed to compare the efficacy of nitrite with the clinical standard, 20 ppm inhaled NO gas. […] A second purpose was to determine the duration of effect of a short nitrite nebulization versus NO gas inhalation on hemodynamic and physiological measurements during prolonged hypoxic-induced pulmonary vasoconstriction. After baseline measurements were performed, the lambs were made hypoxic as described above for 35 minutes. Ten minutes after initiation of hypoxia, a 20-minute period of NO gas inhalation was initiated (20 ppm), with continuation of hypoxia for 5 minutes after cessation of NO gas delivery. Lambs were then allowed to recover for one hour. Again, after baseline measurements were made, a second 90-minute period of hypoxia was initiated.

[2] = test system: hepatic ischemia-reperfusion injury; assay: Hepatic ischemia-reperfusion (I/R) injury; assay type: in vivo, mice
Description: Carboxy-PTIO [2-(4-Carboxyphenyl)-4,4,5,5-tetramethylimidazoline-1-oxyl-3-oxide potassium salt], a direct intravascular NO scavenger, was utilized to inhibit NO dependent effects following hepatic I/R injury. Carboxy-PTIO (Alexis Biochemicals) was dissolved in phosphate buffered saline and administered intravenously at a dose of 1 mg/Kg in a volume of 50 μL at 30 minutes prior to hepatic ischemia Zinc(II) Deuteroporphyrin IX-2,4-bisethyleneglycol (ZnDBG) (Alexis Biochemicals), a heme oxygenase-1 inhibitor was injected i.p. at a dose of 10 mg/Kg in a volume of 50 μL at 30 minutes prior to the induction of hepatic ischemia.
All of the mice utilized in the present studies were C57BL6/J at 8-10 weeks of age obtained from the Jackson Laboratories (Bar Harbor, Me.). In additional experiments of hepatic I/R injury we utilized mice completely deficient (−/−) in endothelial nitric oxide synthase (eNOS). eNOS−/− mice were originally generously donated from Dr. Paul Huang (Mass. General Hospital) and generated in our breeding colony at LSU-Health Sciences Center. eNOS−/− mice were utilized at 8-10 weeks of age.
The hepatic I/R protocol is depicted in FIG. 6A and has been described previously (Hines et al., Biochem Biophys Res Commun 284:972-976, 2001; Hines et al., Am J Physiol Gastrointest Liver Physiol 284:G536-545, 2001). Mice were anesthetized with the combination of ketamine (100 mg/kg) and zylazine (8 mg/kg) and a midline laparotomy was performed to expose the liver. Mice were then injected with heparin (100 μg/kg, i.p.) to prevent blood clotting. The left lateral and median lobes of the liver were rendered ischemic by completely clamping the hepatic artery and the portal vein using microaneurysm clamps. This experimental model results in a segmental (70%) hepatic ischemia. This method of partial ischemia prevents mesenteric venous congestion by allowing portal decompression throughout the right and caudate lobes of the liver. The liver was then repositioned in the peritoneal cavity in its original location for 45 minutes. The liver was kept moist using gauze soaked in 0.9% normal saline. In addition, body temperature was maintained at 37° C. using a heat lamp and monitoring body temperature with a rectal temperature probe. Sham surgeries were identical except that hepatic blood flow was not reduced with a microaneurysm clamp. The duration of hepatic ischemia was 45 minutes in all experiments, following which the microaneurysm clamps were removed. The duration of hepatic reperfusion was 5 hours in the studies of serum liver transaminase levels (i.e., AST or ALT) and 24 hours for the studies of liver histopathology (such as hepatocellular infarction).
Serum samples were analyzed for aspartate aminotransferase (AST) and alanine aminotransferase (ALT) using a spectrophotometric method (Sigma Chemical Co., St. Louis, Mo.) (Harada et al., Proc Natl Acad Sci USA 100:739-744, 2003). These enzymes are liver specific and are released from the liver during injury (Hines et al., Biochem Biophys Res Commun 284:972-976, 2001; Hines et al., Am J Physiol Gastrointest Liver Physiol 284:G536-545, 2001). […]

[3] = test system: U46619-induced normoxic pulmonary hypertension; assay type: in vivo; details: 2 μg/kg/min i.v. for 30 minutes; before 24±1
Description: This is a simple, inexpensive, and widely available clinical nebulizer system, though other systems could be used.
Six additional lambs were studied in order to evaluate the effects of nitrite nebulization on normoxic pulmonary hypertension. Stable normoxic pulmonary hypertension was induced by an infusion of a stable endoperoxide analog of thromboxane (U46619-9,11-dideoxy-11α-epoxymethano-prostaglandin F2α, Cayman Chemicals, Ann Arbor, Mich.). The drug was dissolved in saline and was administered at a rate of 2 μg/kg/min into the femoral venous catheter for 30 minutes. Nitrite was nebulized for inhalation during the last 20 minutes of the infusion (FIG. 11).

Structure (SMILES): CNC(=N)NCCC[C@H](N)C(=O)O [L-NMMA, L-NG-monomethyl-arginine]
- reduction of forearm blood flow (forearm circulation): approximately 30%

Structure (SMILES): [N]=O [NO gas, nitric oxide]
- loss of the vasodilating effect after termination of delivery ([1]; 20 ppm): in a matter of seconds
- reduction (correction) of hypoxic-induced pulmonary hypertension ([1]; NO gas 20 ppm or nitrite aerosol for 20 minutes): about 80%

Structure (SMILES): CC1(C)N([O])C(c2ccc(C(=O)[O-])cc2)=[N+]([O-])C1(C)C.[K+] [PTIO, 2-(4-Carboxyphenyl)-4,4,5,5-tetramethylimidazoline-1-oxyl-3-oxide potassium salt]
- effect on nitrite protection (serum AST) ([2]; nitrite 24 μM + PTIO, full factorial design): completely inhibited protective effects of nitrite

Structure (SMILES): CCCCCC(O)/C=C/C1C2CC(CO2)C1C/C=C\CCCC(=O)O (stereo not drawn) [U46619, 9,11-dideoxy-11α-epoxymethano-prostaglandin F2α]
- pulmonary artery pressure during infusion [3]: 51±4 mmHg

Structure (SMILES): O=[N+]([O-])[O-].[Na+] [sodium nitrate]
- serum elevations of liver transaminases AST and ALT ([2]; intraperitoneal during hepatic ischemia, 45 min ischemia, 5 h reperfusion, nitrite 1.2-480 nmoles, nitrate 48 nmoles): did not exert any protective effects
